According to patent US11708360B2, “N-substituted-dioxocyclobutenylamino-3-hydroxy-picolinamides useful as CCR6 inhibitors” (Pfizer Inc., priority 2018, dated 2023):
Like-named read-outs stand apart in the source and are kept apart here.

Assays:
CXCR2 [1] = target: T1, CXCR2 (Homo sapiens, UniProt P25025); design: host or cells: Path-Hunter HEK293 cells; details: Table 16; data disclosed in WO 2013/061005; β-arrestin recruitment, CXCL8, Path-Hunter HEK293 cells; cited from earlier work
T1 sequence (P25025 1-360): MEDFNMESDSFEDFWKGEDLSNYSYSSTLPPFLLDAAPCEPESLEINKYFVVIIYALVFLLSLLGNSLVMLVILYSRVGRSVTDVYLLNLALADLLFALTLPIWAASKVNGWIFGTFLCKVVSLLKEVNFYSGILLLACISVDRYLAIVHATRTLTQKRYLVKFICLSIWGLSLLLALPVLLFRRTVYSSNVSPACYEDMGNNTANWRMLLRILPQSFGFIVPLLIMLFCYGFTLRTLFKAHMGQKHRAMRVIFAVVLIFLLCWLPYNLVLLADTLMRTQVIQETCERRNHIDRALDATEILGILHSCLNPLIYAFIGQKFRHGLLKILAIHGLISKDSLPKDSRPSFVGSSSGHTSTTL

CXCR2 [2] = target: T1, CXCR2; test: Human Neutrophil Chemotaxis Assay; format: cell-based; design: Human neutrophils were purified from freshly drawn human whole blood; endogenous in cells; host or cells: primary human neutrophils from fresh whole blood; details: Table 17; WO 2013/061005 comparator compounds; read-out: IC50 (nM) CXCR2 Neutrophil, GROα Chemotaxis

Q: Which IC50 (CXCR2 [1]) does the source give for `Cc1ccc([C@H](Nc2c(Nc3ccc(Cl)c(S(=O)(=O)N(C)C)c3O)c(=O)c2=O)C2(C)COC2)o1` [Example 22 (WO 2013/061005), reference compound] here?
A: The IC50 was 31 nM.

Q: What about the IC50 (CXCR2 [2]) of the same compound?
A: Its IC50 is 35.2 nM.

Q: What does the source list for `Cc1ccc([C@H](Nc2c(Nc3ccc(Cl)c(C(=O)N4CCN(C)CC4)c3O)c(=O)c2=O)C2(C)COC2)o1` [Example 53, reference compound]?
A: IC50 (CXCR2 [1]): 30 nM; IC50 (CXCR2 [2]): 1140 nM
